Laboratory results as given in patent US12123048B2, “Fluorinated 4′-alkylumbelliferyl a-D-glucopyranosides, biological sterilization indicators including the same and methods of using the same” (3M INNOVATIVE PROPERTIES COMPANY, priority 2018, dated 2024).

System: Geobacillus stearothermophilus spores (ATCC 7953)
Test: Fluorescence measurements using enzyme substrates and Geobacillus stearothermophilus spores in LB broth
Assay type: cell-based
Settings: substrate 0.3 mg/mL, 5×10^6 spores, 60° C.
Procedure: Luria-Bertani (LB) broth was prepared by dissolving tryptone (10 g/L), yeast extract (5 g/L), and NaCl (5 g/L) in deionized water. In the examples, 6′-fluoro-4′-methylumbelliferyl α-D-glucopyranoside (0.3 mg/mL) or 5′-fluoro-4′-methylumbelliferyl α-D-glucopyranoside (0.3 mg/mL) was added to the broth. In the comparative examples, 4′-methylumbelliferyl α-D-glucopyranoside (MUG) (0.3 mg/mL) or 6′,8′-Difluoro-4′-methylumbelliferyl α-D-glucopyranoside (0.3 mg/mL) was added to the broth. The pH of the broth was adjusted to either pH 6, pH 7, pH 8, or pH 9 using 0.1 N hydrochloric acid or 1N sodium hydroxide solutions. The broth was passed through a 0.22 micron filter prior to use.
LB broth (pH 6) containing 6′-fluoro-4′-methylumbelliferyl α-D-glucopyranoside (0.3 mg/mL) (enzyme substrate of Example 1) was added to two wells (100 microliters per well) of a black 96-well microtiter plate with optically clear, flat bottom wells (NUNC #165301, Thermo Fisher Scientific, Waltham, MA). A 5 microliter aqueous suspension containing 5×10^6 Geobacillus stearothermophilus spores (ATCC 7953) was added to each well of the microtiter plate. Next, the contents of each well were mixed using a multiple aspiration/delivery sequence with the pipet. […] The top of the plate was covered with an optically clear sealing film (product #4311971, Applied Biosystems Corporation, Foster City, CA). The plate was warmed at 60° C. and shaken in a linear direction. Fluorescence readings (360 nm excitation/450 nm emission at 50% gain) were taken from the bottom of the plate. A reading was taken at an initial time point of 10 seconds and then at +1 minute intervals thereafter. A Synergy Neo2 fluorescence plate reader (BioTek Company, Winooski, VT) was used. In Table 1, the mean fluorescence values detected (RFU) at times of 10 seconds, +5 minutes, +10 minutes, and +30 minutes are reported. The mean fluorescence values detected for the control wells were 978 RFU at 10 seconds; 920 RFU at +5 minutes; 870 RFU at +10 minutes, and 746 RFU at +30 minutes.
(§1) The procedure of Example 3 was followed, with the exception that the LB broth (pH 6) containing 6′-fluoro-4′-methylumbelliferyl α-D-glucopyranoside (0.3 mg/mL) was replaced with LB broth (pH 6) containing 5′-fluoro-4′-methylumbelliferyl-α-D-glucopyranoside (0.3 mg/mL) (enzyme substrate of Example 2). In Table 1, the mean fluorescence values detected (RFU) at times of 10 seconds, +5 minutes, +10 minutes, and +30 minutes are reported. The mean fluorescence values detected for the control wells were 828 RFU at 10 seconds; 784 RFU at +5 minutes; 738 RFU at +10 minutes, and 622 RFU at +30 minutes.
as §1, with “4-methylumbelliferyl α-D-glucopyranoside” for “5′-fluoro-4′-methylumbelliferyl-α-D-glucopyranoside”, “(MUG).” for “(enzyme substrate of Example 2).”, “868” for “828”, “802” for “784”, “756” for “738”, “656” for “622”
The procedure of Example 3 was followed, with the exception that the LB broth (pH 6) containing 6′-fluoro-4′-methylumbelliferyl α-D-glucopyranoside (0.3 mg/mL) was replaced with LB broth (pH 6) containing 6′,8′-difluoro-4′-methylumbelliferyl α-D-glucopyranoside (0.3 mg/mL) (enzyme substrate of Comparative Example A). In Table 1, the mean fluorescence values detected (RFU) at times of 10 seconds, +5 minutes, +10 minutes, and +30 minutes are reported. The mean fluorescence values detected for the control wells were 1,768 RFU at 10 seconds; 1,750 RFU at +5 minutes; 1,743 RFU at +10 minutes, and 1,805 RFU at +30 minutes. […]

[1] = pH 6 LB broth, 360 nm excitation/450 nm emission

Cc1cc(=O)oc2c(F)c(O[C@H]3O[C@H](CO)[C@@H](O)[C@H](O)[C@H]3O)c(F)cc12 [Comparative Example A, 6′,8′-Difluoro-4′-methylumbelliferyl α-D-glucopyranoside]
MEASURED FLUORESCENCE, RFU 10 sec [1]: 29807 RFU | MEASURED FLUORESCENCE, RFU +5 min (pH 6 LB broth): 68823 RFU | MEASURED FLUORESCENCE, RFU +10 min (pH 6 LB broth): 85625 RFU | MEASURED FLUORESCENCE, RFU +30 min (pH 6 LB broth): >100000 RFU | MEASURED FLUORESCENCE, RFU 10 sec (pH 7 LB broth): 32795 RFU | MEASURED FLUORESCENCE, RFU +5 min (pH 7 LB broth): 67118 RFU | MEASURED FLUORESCENCE, RFU +10 min (pH 7 LB broth): 89943 RFU | MEASURED FLUORESCENCE, RFU +30 min (pH 7 LB broth): >100000 RFU | MEASURED FLUORESCENCE, RFU 10 sec (pH 8 LB broth): 20878 RFU | MEASURED FLUORESCENCE, RFU +5 min (pH 8 LB broth): 48312 RFU | MEASURED FLUORESCENCE, RFU +10 min (pH 8 LB broth): 77765 RFU | MEASURED FLUORESCENCE, RFU +30 min (pH 8 LB broth): >100000 RFU | MEASURED FLUORESCENCE, RFU 10 sec (pH 9 LB broth): 4119 RFU | MEASURED FLUORESCENCE, RFU +5 min (pH 9 LB broth): 12620 RFU | MEASURED FLUORESCENCE, RFU +10 min (pH 9 LB broth): 31290 RFU | MEASURED FLUORESCENCE, RFU +30 min (pH 9 LB broth): 77404 RFU

Cc1cc(=O)oc2cc(O[C@H]3O[C@H](CO)[C@@H](O)[C@H](O)[C@H]3O)c(F)cc12 [Example 1, 6′-Fluoro-4′-methylumbelliferyl α-D-glucopyranoside]
MEASURED FLUORESCENCE, RFU 10 sec [1]: 11764 RFU | MEASURED FLUORESCENCE, RFU +5 min (pH 6 LB broth): 30536 RFU | MEASURED FLUORESCENCE, RFU +10 min (pH 6 LB broth): 51188 RFU | MEASURED FLUORESCENCE, RFU +30 min (pH 6 LB broth): 82334 RFU | MEASURED FLUORESCENCE, RFU 10 sec (pH 7 LB broth): 24718 RFU | MEASURED FLUORESCENCE, RFU +5 min (pH 7 LB broth): 54317 RFU | MEASURED FLUORESCENCE, RFU +10 min (pH 7 LB broth): 79851 RFU | MEASURED FLUORESCENCE, RFU +30 min (pH 7 LB broth): >100000 RFU | MEASURED FLUORESCENCE, RFU 10 sec (pH 8 LB broth): 11298 RFU | MEASURED FLUORESCENCE, RFU +5 min (pH 8 LB broth): 32225 RFU | MEASURED FLUORESCENCE, RFU +10 min (pH 8 LB broth): 61862 RFU | MEASURED FLUORESCENCE, RFU +30 min (pH 8 LB broth): >100000 RFU | MEASURED FLUORESCENCE, RFU 10 sec (pH 9 LB broth): 2823 RFU | MEASURED FLUORESCENCE, RFU +5 min (pH 9 LB broth): 8863 RFU | MEASURED FLUORESCENCE, RFU +10 min (pH 9 LB broth): 22809 RFU | MEASURED FLUORESCENCE, RFU +30 min (pH 9 LB broth): 77125 RFU

Cc1cc(=O)oc2cc(O[C@H]3O[C@H](CO)[C@@H](O)[C@H](O)[C@H]3O)cc(F)c12 [Example 2, 5′-Fluoro-4′-methylumbelliferyl α-D-glucopyranoside]
MEASURED FLUORESCENCE, RFU 10 sec [1]: 1663 RFU | MEASURED FLUORESCENCE, RFU +5 min (pH 6 LB broth): 3559 RFU | MEASURED FLUORESCENCE, RFU +10 min (pH 6 LB broth): 7048 RFU | MEASURED FLUORESCENCE, RFU +30 min (pH 6 LB broth): 20550 RFU | MEASURED FLUORESCENCE, RFU 10 sec (pH 7 LB broth): 5842 RFU | MEASURED FLUORESCENCE, RFU +5 min (pH 7 LB broth): 15059 RFU | MEASURED FLUORESCENCE, RFU +10 min (pH 7 LB broth): 28596 RFU | MEASURED FLUORESCENCE, RFU +30 min (pH 7 LB broth): 58390 RFU | MEASURED FLUORESCENCE, RFU 10 sec (pH 8 LB broth): 3928 RFU | MEASURED FLUORESCENCE, RFU +5 min (pH 8 LB broth): 11692 RFU | MEASURED FLUORESCENCE, RFU +10 min (pH 8 LB broth): 26273 RFU | MEASURED FLUORESCENCE, RFU +30 min (pH 8 LB broth): 66491 RFU | MEASURED FLUORESCENCE, RFU 10 sec (pH 9 LB broth): 1116 RFU | MEASURED FLUORESCENCE, RFU +5 min (pH 9 LB broth): 3002 RFU | MEASURED FLUORESCENCE, RFU +10 min (pH 9 LB broth): 7983 RFU | MEASURED FLUORESCENCE, RFU +30 min (pH 9 LB broth): 43732 RFU

Cc1cc(=O)oc2cc(O[C@H]3O[C@H](CO)[C@@H](O)[C@H](O)[C@H]3O)ccc12 [MUG, 4′-methylumbelliferyl-α-D-glucopyranoside]
MEASURED FLUORESCENCE, RFU 10 sec [1]: 1590 RFU | MEASURED FLUORESCENCE, RFU +5 min (pH 6 LB broth): 3100 RFU | MEASURED FLUORESCENCE, RFU +10 min (pH 6 LB broth): 5607 RFU | MEASURED FLUORESCENCE, RFU +30 min (pH 6 LB broth): 15915 RFU | MEASURED FLUORESCENCE, RFU 10 sec (pH 7 LB broth): 3298 RFU | MEASURED FLUORESCENCE, RFU +5 min (pH 7 LB broth): 7944 RFU | MEASURED FLUORESCENCE, RFU +10 min (pH 7 LB broth): 15511 RFU | MEASURED FLUORESCENCE, RFU +30 min (pH 7 LB broth): 41643 RFU | MEASURED FLUORESCENCE, RFU 10 sec (pH 8 LB broth): 3450 RFU | MEASURED FLUORESCENCE, RFU +5 min (pH 8 LB broth): 9572 RFU | MEASURED FLUORESCENCE, RFU +10 min (pH 8 LB broth): 21171 RFU | MEASURED FLUORESCENCE, RFU +30 min (pH 8 LB broth): 64484 RFU | MEASURED FLUORESCENCE, RFU 10 sec (pH 9 LB broth): 1193 RFU | MEASURED FLUORESCENCE, RFU +5 min (pH 9 LB broth): 3444 RFU | MEASURED FLUORESCENCE, RFU +10 min (pH 9 LB broth): 9258 RFU | MEASURED FLUORESCENCE, RFU +30 min (pH 9 LB broth): 48874 RFU
